Measured values reported in PubChem BioAssay AID2060503 (Molecular Pharmacology Branch, DTP, NCI, 2025).
pIC50: −log10 of the molar value.

System: 817829-284-R-J1-PDC complex spheroids, viability
Assay: Anticancer human tumor 817829-284-R-J1-PDC patient-derived colon adenocarcinoma cell line growth inhibition [GQUAD]
Conditions: for pIC50: curve of first compound; for viability, T/C: stronger effect = lower value
In short: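 Tumor cells were grown as complex spheroids with HUVEC endothelial cells and mesenchymal stem cells as stroma. G-quadruplex stabilizers were combined with targeted agents over half-log dilutions from near the clinical Cmax, or from 10 microM.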

[1] = second compound 0.0316 µM, first compound 0.000999 µM
[2] = second compound 0.0316 µM, first compound 0.00316 µM
[3] = second compound 0.0316 µM, first compound 0.00999 µM
[4] = second compound 0.0316 µM, first compound 0.0316 µM
[5] = second compound 0.0316 µM, first compound 0.0999 µM
[6] = second compound 0.0316 µM, first compound 0.316 µM
[7] = second compound 0.1 µM, first compound 0.000999 µM
[8] = second compound 0.1 µM, first compound 0.00316 µM
[9] = second compound 0.1 µM, first compound 0.00999 µM
[10] = second compound 0.1 µM, first compound 0.0316 µM
[11] = second compound 0.1 µM, first compound 0.0999 µM
[12] = second compound 0.1 µM, first compound 0.316 µM
[13] = second compound 0.316 µM, first compound 0.000999 µM
[14] = second compound 0.316 µM, first compound 0.00316 µM
[15] = second compound 0.316 µM, first compound 0.00999 µM
[16] = second compound 0.316 µM, first compound 0.0316 µM
[17] = second compound 0.316 µM, first compound 0.0999 µM
[18] = second compound 0.316 µM, first compound 0.316 µM
[19] = second compound 1 µM, first compound 0.000999 µM
[20] = second compound 1 µM, first compound 0.00316 µM
[21] = second compound 1 µM, first compound 0.00999 µM
[22] = second compound 1 µM, first compound 0.0316 µM
[23] = second compound 1 µM, first compound 0.0999 µM
[24] = second compound 1 µM, first compound 0.316 µM
[25] = second compound 3.16 µM, first compound 0.000999 µM
[26] = second compound 3.16 µM, first compound 0.00316 µM
[27] = second compound 3.16 µM, first compound 0.00999 µM
[28] = second compound 3.16 µM, first compound 0.0316 µM
[29] = second compound 3.16 µM, first compound 0.0999 µM
[30] = second compound 3.16 µM, first compound 0.316 µM
[31] = second compound 10 µM, first compound 0.000999 µM
[32] = second compound 10 µM, first compound 0.00316 µM
[33] = second compound 10 µM, first compound 0.00999 µM
[34] = second compound 10 µM, first compound 0.0316 µM
[35] = second compound 10 µM, first compound 0.0999 µM
[36] = second compound 10 µM, first compound 0.316 µM
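Also: spheroids exposed to agents for 7 days before readout.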
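For viability, T/C in this document: percent viability relative to DMSO vehicle control taken as 100%.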

Question: Which results are given for `CC[C@@]1(O)C(=O)OCc2c1cc1n(c2=O)Cc2cc3c(CN(C)C)c(O)ccc3nc2-1` + CN(C)c1ccc(Nc2c3ccc(NC(=O)CCN4CCCC4)cc3nc3cc(NC(=O)CCN4CCCC4)ccc23)cc1?
Answer: pIC50 (second compound 0.0316 µM): 7.17; pIC50 (second compound 0.1 µM): 7.23; pIC50 (second compound 0.316 µM): 7.17; pIC50 (second compound 1 µM): 7.20; pIC50 (second compound 3.16 µM): 7.17; pIC50 (second compound 10 µM): 7.12; viability, T/C [1]: 80.2%; viability, T/C [2]: 104%; viability, T/C [3]: 94.8%; viability, T/C [4]: 65.9%; viability, T/C [5]: 45.4%; viability, T/C [6]: 35.5%; viability, T/C [7]: 97.1%; viability, T/C [8]: 122%; viability, T/C [9]: 108%; viability, T/C [10]: 59.8%; viability, T/C [11]: 44.5%; viability, T/C [12]: 38.5%; viability, T/C [13]: 89.7%; viability, T/C [14]: 123%; viability, T/C [15]: 107%; viability, T/C [16]: 66.7%; viability, T/C [17]: 46.4%; viability, T/C [18]: 35.6%; viability, T/C [19]: 111%; viability, T/C [20]: 108%; viability, T/C [21]: 105%; viability, T/C [22]: 62.9%; viability, T/C [23]: 45.9%; viability, T/C [24]: 34%; viability, T/C [25]: 114%; viability, T/C [26]: 99.9%; viability, T/C [27]: 101%; viability, T/C [28]: 67.7%; viability, T/C [29]: 41.5%; viability, T/C [30]: 32.4%; viability, T/C [31]: 102%; viability, T/C [32]: 101%; viability, T/C [33]: 84%; viability, T/C [34]: 65.8%; viability, T/C [35]: 45.6%; viability, T/C [36]: 30.3%

Question: What does the source list for `CCc1c2c(nc3ccc(O)cc13)-c1cc3c(c(=O)n1C2)COC(=O)[C@]3(O)CC` + CN(C)c1ccc(Nc2c3ccc(NC(=O)CCN4CCCC4)cc3nc3cc(NC(=O)CCN4CCCC4)ccc23)cc1?
Answer: pIC50 (second compound 0.0316 µM): 8.92; pIC50 (second compound 0.1 µM): 8.84; pIC50 (second compound 0.316 µM): 8.66; pIC50 (second compound 1 µM): 8.65; pIC50 (second compound 3.16 µM): 8.56; pIC50 (second compound 10 µM): 8.69; viability, T/C [1]: 50.9%; viability, T/C [2]: 44.4%; viability, T/C [3]: 32.1%; viability, T/C [4]: 21.4%; viability, T/C [5]: 10.8%; viability, T/C [6]: 6.33%; viability, T/C [7]: 54.2%; viability, T/C [8]: 40.1%; viability, T/C [9]: 34.6%; viability, T/C [10]: 19.8%; viability, T/C [11]: 10.2%; viability, T/C [12]: 4.96%; viability, T/C [13]: 53.4%; viability, T/C [14]: 48.3%; viability, T/C [15]: 36.7%; viability, T/C [16]: 19.2%; viability, T/C [17]: 10.4%; viability, T/C [18]: 5.53%; viability, T/C [19]: 61.1%; viability, T/C [20]: 44.1%; viability, T/C [21]: 32.5%; viability, T/C [22]: 21.3%; viability, T/C [23]: 11.2%; viability, T/C [24]: 5.92%; viability, T/C [25]: 66.4%; viability, T/C [26]: 45.1%; viability, T/C [27]: 35%; viability, T/C [28]: 23.7%; viability, T/C [29]: 12.2%; viability, T/C [30]: 6.09%; viability, T/C [31]: 60.8%; viability, T/C [32]: 42.9%; viability, T/C [33]: 28.7%; viability, T/C [34]: 20.6%; viability, T/C [35]: 11.4%; viability, T/C [36]: 6.76%

Question: `COc1cc(C2c3cc4c(cc3C(OC3OC5COC(C)OC5C(O)C3O)C3COC(=O)C23)OCO4)cc(OC)c1O` (stereo unspecified) + CN(C)c1ccc(Nc2c3ccc(NC(=O)CCN4CCCC4)cc3nc3cc(NC(=O)CCN4CCCC4)ccc23)cc1 was tested. Which pIC50 (second compound 0.0316 µM) did it give?
Answer: 6.42

Question: What about the pIC50 (second compound 0.1 µM) of the same molecule?
Answer: 6.36

Question: And the pIC50 (second compound 0.316 µM)?
Answer: 6.43

Question: What about the pIC50 (second compound 1 µM) of the same molecule?
Answer: 6.64

Question: And the pIC50 (second compound 3.16 µM)?
Answer: 6.64

Question: What about the pIC50 (second compound 10 µM) of the same molecule?
Answer: 6.53

Question: What about the viability, T/C [4] of the same molecule?
Answer: 103%

Question: And the viability, T/C (second compound 0.0316 µM, first compound 0.1 µM)?
Answer: 85.7%

Question: What about the viability, T/C [6] of the same molecule?
Answer: 35%

Question: What about the viability, T/C (second compound 0.0316 µM, first compound 1 µM) of the same molecule?
Answer: 42.8%

Question: What about the viability, T/C (second compound 0.0316 µM, first compound 3.16 µM) of the same molecule?
Answer: 32.1%

Question: What about the viability, T/C (second compound 0.0316 µM, first compound 10 µM) of the same molecule?
Answer: 10.2%

Question: And the viability, T/C [10]?
Answer: 97.5%

Question: And the viability, T/C (second compound 0.1 µM, first compound 0.1 µM)?
Answer: 88.6%

Question: And the viability, T/C [12]?
Answer: 34.5%

Question: What about the viability, T/C (second compound 0.1 µM, first compound 1 µM) of the same molecule?
Answer: 44.9%

Question: And the viability, T/C (second compound 0.1 µM, first compound 3.16 µM)?
Answer: 33.9%

Question: And the viability, T/C (second compound 0.1 µM, first compound 10 µM)?
Answer: 11%

Question: What about the viability, T/C [16] of the same molecule?
Answer: 92.7%

Question: And the viability, T/C (second compound 0.316 µM, first compound 0.1 µM)?
Answer: 81.6%

Question: What about the viability, T/C [18] of the same molecule?
Answer: 37.7%

Question: What about the viability, T/C (second compound 0.316 µM, first compound 1 µM) of the same molecule?
Answer: 40.4%

Question: What about the viability, T/C (second compound 0.316 µM, first compound 3.16 µM) of the same molecule?
Answer: 33.3%

Question: And the viability, T/C (second compound 0.316 µM, first compound 10 µM)?
Answer: 11.8%

Question: What about the viability, T/C [22] of the same molecule?
Answer: 101%

Question: What about the viability, T/C (second compound 1 µM, first compound 0.1 µM) of the same molecule?
Answer: 92.1%

Question: And the viability, T/C [24]?
Answer: 33.1%

Question: And the viability, T/C (second compound 1 µM, first compound 1 µM)?
Answer: 40.7%

Question: And the viability, T/C (second compound 1 µM, first compound 3.16 µM)?
Answer: 32%

Question: And the viability, T/C (second compound 1 µM, first compound 10 µM)?
Answer: 9.94%

Question: What about the viability, T/C [28] of the same molecule?
Answer: 95.4%

Question: What about the viability, T/C (second compound 3.16 µM, first compound 0.1 µM) of the same molecule?
Answer: 87.9%

Question: And the viability, T/C [30]?
Answer: 34.3%

Question: And the viability, T/C (second compound 3.16 µM, first compound 1 µM)?
Answer: 37%

Question: And the viability, T/C (second compound 3.16 µM, first compound 3.16 µM)?
Answer: 30.7%

Question: What about the viability, T/C (second compound 3.16 µM, first compound 10 µM) of the same molecule?
Answer: 10.4%

Question: What about the viability, T/C [34] of the same molecule?
Answer: 86.9%

Question: And the viability, T/C (second compound 10 µM, first compound 0.1 µM)?
Answer: 68.2%

Question: And the viability, T/C [36]?
Answer: 37.1%

Question: And the viability, T/C (second compound 10 µM, first compound 1 µM)?
Answer: 41.5%

Question: What about the viability, T/C (second compound 10 µM, first compound 3.16 µM) of the same molecule?
Answer: 27.3%

Question: What about the viability, T/C (second compound 10 µM, first compound 10 µM) of the same molecule?
Answer: 10%
